Consider 7 molecules from ChEMBL document CHEMBL1759874, “Feruloylacetone as the model compound of half-curcumin: synthesis and antioxidant properties” (2011).

Experiment [1] in a line: Antioxidant activity against singlet oxygen radicals assessed as decrease of 4-nitroso-N,N-dimethylaniline decolorization at 150 uM after 40 mins by quenching assay. It is filed as functional.
A short description of experiment [2]: Antioxidant activity against singlet oxygen radicals assessed as decrease of 4-nitroso-N,N-dimethylaniline decolorization after 40 mins by quenching assay. It is filed as functional.
Experiment [3] is described as follows: Antioxidant activity against protection of autooxidation of linoleic acid at 50 uM by beta-carotene bleaching test. It is filed as functional.
The nature of experiment [4]: Antioxidant activity against AAPH-induced methyl linoleate oxidation at 50 uM after 120 mins by beta-carotene bleaching test. It is filed as functional.
Experiment [5] can be described thus: Antioxidant activity against hydroxyl radical-induced DNA damage assessed as TBARS production at 0.2 mM after 30 mins. It is filed as functional.
The nature of experiment [6]: Antioxidant activity against AAPH-induced DNA damage assessed as TBARS production. It is filed as functional.
Experiment [7] in a line: Antioxidant activity against AAPH-induced hemolysis in human erythrocytes assessed as inhibition time. It is filed as functional, Erythrocyte.
Experiment [8] can be described thus: Antioxidant activity against AAPH-induced hemolysis in human erythrocytes assessed as inhibition time at 18 uM. It is filed as functional, Erythrocyte.
Experiment [9] can be described thus: Antioxidant activity against AAPH-induced hemolysis in human erythrocytes assessed as inhibition time at 36 uM. It is filed as functional, Erythrocyte.
In experiment [10] the test system is Erythrocyte. Kind of experiment: Antioxidant activity against AAPH-induced hemolysis in human erythrocytes at 54 uM. It is filed as functional, cell-based.
In experiment [11] the test system is Erythrocyte. The experiment in a line: Antioxidant activity in human erythrocytes assessed as inhibition of hemin-induced hemolysis at up to 120 uM after 30 mins. It is filed as functional, cell-based.
A short description of experiment [12]: Antioxidant activity assessed as ABTS free radical scavenging activity at 50 uM. It is filed as functional.
In experiment [13] the test system is Radical scavenging activity. The experiment in a line: Antioxidant activity assessed as DPPH free radical scavenging activity at 50 uM. It is filed as functional. In general terms: The DPPH test is a chemical assay of radical scavenging.
Experiment [14] is described as follows: Antioxidant activity assessed as galvinoxyl free radical scavenging activity at 25 uM. It is filed as functional.
Experiment [15] can be described thus: Antioxidant activity against Cu2+/GSH-induced oxidation of DNA assessed as TBARS production at 0.2 mM after 30 mins. It is filed as functional.
Experiment [16] has as its system Erythrocyte. The experiment in a line: Antioxidant activity in human erythrocytes assessed as inhibition of hemin-induced hemolysis after 30 mins. It is filed as functional, cell-based.
Experiment [17] is described as follows: Antioxidant activity against AAPH-induced DNA damage assessed as inhibition period for TBARS production. It is filed as functional.
Experiment [18] is described as follows: Antioxidant activity against AAPH-induced methyl linoleate oxidation assessed as inhibition period at 50 uM by beta-carotene bleaching test. It is filed as functional.
Experiment [19] can be described thus: Antioxidant activity against singlet oxygen radicals assessed as decrease of 4-nitroso-N,N-dimethylaniline decolorization at 250 uM after 40 mins by quenching assay. It is filed as functional.
Experiment [20] is described as follows: Antioxidant activity against singlet oxygen radicals assessed as decrease of 4-nitroso-N,N-dimethylaniline decolorization at up to 240 uM after 40 mins by quenching assay. It is filed as functional.

Active and inactive are the calls of the source. No cut-off for these calls is given here.

As to `COc1cc(/C=C/C(=O)CC(C)=O)ccc1OCc1ccccc1`, the outcome (in [1]; in experiment [5]; in experiment [6]; in the experiment on Erythrocyte [10]) was Active. Also, the Activity result in experiment [2] was “Dose-dependent effect”. Moreover, the outcome (in experiment [3]; in experiment [4]; in the experiment with Erythrocyte [11]) was inactive. The figures for the Time in experiment [7], in experiment [8] and in experiment [9] were 3.3 min, 80 min and 56 min, respectively.
As for `CC(=O)CC(=O)/C=C/c1ccc(O)c(O)c1`, the Activity in experiment [12] was 7.56 µM/min; in experiment [13] it was 41.2 µM/min; in [14], 0.08 µM/min; in [2], “Dose-dependent effect”; in experiment [4] (TDE = time-dependent effect), “tde”; with Erythrocyte [16], “Dose-dependent effect”. The outcome in experiment [3], in experiment [15], in experiment [5] and in experiment [6] was Active. Further, in [7], the Time came to 3.92 min. The values for the TIME in experiment [17] and in experiment [18] were 0.0428 h and 3.73 h, respectively.
Consider `COc1cc(CCC(=O)CC(C)=O)ccc1O`, for which the Activity in experiment [12] was 3.85 µM/min; in [13], 16.9 µM/min; in experiment [14], 0.06 µM/min; in experiment [2], “Dose-dependent effect”; in experiment [4] (TDE = time-dependent effect) it was “tde”; in the experiment on Erythrocyte [16], “Dose-dependent effect”. Further, the outcome in experiment [3] was inactive. Moreover, the outcome in experiment [5] and in [6] was Active. Further, in [7], the Time is reported as 3.48 min. Besides, the TIME in experiment [17] was 0.0318 h; in [18], 2.67 h.
Turning to `COc1cc(/C=C/C(=O)CC(=O)/C=C/c2ccc(O)c(OC)c2)ccc1O` [CURCUMIN], the Time in experiment [7] is 3.45 min. Moreover, in [17], the TIME worked out at 0.0405 h.
`CCOC(=O)/C(=C/c1ccc(O)c(OC)c1)C(C)=O`: the Activity was 1.78 µM/min in experiment [12]; 7.54 µM/min in experiment [13]; 0.02 µM/min in experiment [14]; “Dose-dependent effect” in experiment [2]; “Dose-dependent effect” in the experiment with Erythrocyte [16]. For the same molecule, the outcome in [19], in [5] and in [6] was Active. Also, the outcome in [3] and in [4] was inactive. In addition, in [7], the Time is given as 1.83 min. In addition, the TIME in [17] stood at 0.0137 h.
As to `COc1cc(/C=C/C(O)CC(C)O)ccc1O` (stereo not given), the Activity was 6.26 µM/min in experiment [12], 8.57 µM/min in experiment [13], 0.13 µM/min in [14] and “tde” in experiment [4] (TDE = time-dependent effect). In addition, the outcome in [3], in experiment [5] and in experiment [6] was Active. In experiment [7], the Time stood at 2.05 min. For the same molecule, the TIME worked out at 0.0185 h in [17] and 1.95 h in experiment [18]. In addition, the result (in the experiment with Erythrocyte [11]; in experiment [20]) was inactive.
In the case of `COc1cc(/C=C/C(=O)CC(C)=O)ccc1O`, the Activity in [12] was 6.04 µM/min; in experiment [13] it was 22.3 µM/min; in experiment [14] it was 0.13 µM/min; in experiment [2] it was “Dose-dependent effect”; in experiment [4] (TDE = time-dependent effect) it was “tde”. Besides, the outcome in experiment [3], in experiment [15], in experiment [5] and in experiment [6] was Active. Also, the Time in experiment [7] was determined as 2.38 min. For the same molecule, the TIME in experiment [17] is 0.0237 h; in experiment [18], 3.68 h. Further, in the experiment on Erythrocyte [11], the result was inactive.
